Measured values as given in patent publication US4619932A, “Novel carbostyril derivatives, process for producing thereof and pharmaceutical composition containing the same” (Otsuka Pharmaceutical Co., Ltd., priority 1980, dated 1986).
Structures can show the parent of a compound that is named as a salt. Where two headings read alike, the source gives them in different places.

What was measured:
palpebral ptosis = assay: Palpebral ptosis test in mouse; format: in vivo, mouse (male, ddy-strain); conditions: 64 mg/kg oral, 1 hour; score 0 (wide open eyes) to 8 (eyes completely closed); mean of 10 mice
Experimental: (D) Activity of palpebral ptosis test in mouse
Individual male mice of ddy-strain having 18 to 20 g of body weight were used. The mice were abstained from eating for 24 hours. One test group consists of 10 mice. […] One hour after the administration, the state of palpebral ptosis of the mouse were observed and evaluated on the basis of the following score system. The mean value was calculated from the scores of 10 mice.
Score Degree of palpebral ptosis
8 Eyes completely closed.

[1] = test system: jumping behavior induced by Methamphetamine and L-DOPA; assay: Activity for inhibiting jumping behavior in mouse induced by Methamphetamine and L-DOPA; format: in vivo, mouse (male, ddy-strain); conditions: oral, Methamphetamine 4 mg/kg i.p. and L-DOPA 400 mg/kg i.p., positive = 10 or fewer jumps, read-out: ED50 value, inhibition of jumping behavior
Experimental: (B) Activity for inhibiting jumping behavior in mouse induced by Methamphetamine and L-DOPA
Individual male mice of ddy-strain having a body weight of 17 to 25 g were used. The mice were not fed for 24 hours. One test group consisted of 6 mice. A compound to be tested was administered orally. 40Minutes after the administration 4 mg/kg of Methamphetamine d-N-α-dimethylphenthylamine was intraperitonerally administered, further 15 minutes after the administration of Methamphetamine, 400 mg/kg of L-DOPA was intraperitonerally administered. 60 Minutes after the administration of L-DOPA, (3-(3,4-dihydroxyphenyl)alanine) the mouse was placed in a glass beaker of 2 liters capacity, and the number of jumping of the mouse was recorded. The activity for inhibiting jumping behavior of the test compound was determined as positive in case of number of jumping performed by the administered mouse counted 10 or less. While, the activity for inhibiting jumping behabior of the test compound was determined as negative in case the number of jumping performed by the administered mouse recorded over 10. The effective dosage (ED50 value: mg/kg) of the test compound which gives 3 mice were positive over 6 mice of one test group was calculated. The number of jumping performed by the mouse being administered with physiological saline solution as the reference was 150 to 200 per hour. (Cf. H. Lal, F. C. Colpaert, P. Laduron: European J. Pharmacol., 30, 113-116 (1975)).

epinephrine = assay: Activity for antagonizing epinephrine in mouse; format: in vivo, mouse (male, ddy strain); conditions: oral, 1 hour before epinephrine 40 mg/kg i.p., survival at 24 hours, read-out: ED50 value, dose allowing half the animals to survive
Experimental: (C) Activity for antagonizing epinephrine in mouse
Individual male mice of ddy strain having 17 to 20 g of body weight were used. The mice were abstained from eating for 24 hours. One test group consist of 10 mice. A compound to be tested was administered orally. One hour after the administration, 40 mg/kg of epinephrine was intraperitonerally administered. […] All of 10 mice administered physiological saline solution as the reference group were dead within a few minutes after the administration of epinephrine. (Cf. Loew, E. R. and Micetich, A., J. Pharmacol. Exp. Ther., 93, 434-443 (1948)).

male rats = conditions: rat, in vivo, po
Experimental: Each of the following compound of the general formula in the present invention was administered orally to male rats to determine the acute toxicity (LD50 mg/kg).

Halothane anesthesia = Halothane anesthesia increasing activity; format: in vivo, mouse (male, ddy-strain); conditions: 16 mg/kg oral, 1 hour before 4% Halothane for 3 minutes; righting reflex
Experimental: Male mice of ddy-strain a having about 20 g body weight were used. One test group consists of 10 mice. An aqueous Gummi Arabicum suspension of test compound (80 mg of a compound to be tested and 1 g of Gummi Arabicum/100 ml of physiological NaCl solution) was administered orally to each mouse at the dosage of 16 mg of test compound/kg body. One hour after the administration, each mouse was placed in gas respiration chamber (13×13×24 cm) and oxygen gas containing 4% of Halothane (2-brome-2-chloro-1,1,1-trifluoroethane) was flown into the chamber at the velocity of 2/min for 3 minutes. A mouse anaesthetized was taken out from the chamber and the time between the introduction of anesthesia to waking was measured by righting reflex as the index. To mice of control group, 1% Gummi Arabicum aqueous physiological solution was orally administered at the dosage of 0.1 ml/kg body.

[2] = target: retraction of ileum caused by histamine (Cavia porcellus, UniProt P31389); assay: Antihistaminic activity test in vitro, enucleated ileum of guinea pig; design: species or system guinea pig (male)
Excerpt: (E) Antihistaminic activity test
As to the test method for determining antihistaminic activity of a compound in vitro, a method of using an enucleated ileum of a guinea pig is generally accepted. Antihistaminic activity of the present compounds was conduted according to said method as follows:
A male guinea pig having 300 to 500 g body weight was killed by blood letting. An ileum having length of 15 cm being enucleated from the ileocecal region was dipped into Tyrode's solution (which was prepared from 8.0 g of NaCl, 0.2 g of KCl, 0.2 g of CaCl2, 1.0 g of glucose, 1.0 g of NaHCO3, 0.065 g of NaHPO4.2H2 O and 0.2135 g of MgCl2.6H2 O make 1000 ml in total volume by adding water). Then the tissue of ileum was cut to a length of 2.5 to 3.0 cm and suspended in an organ bath filled with 30 ml of Tyrode's solution. The organ bath was kept a temperature of 36° C. and blowing a mixed gas consisting of 5% of CO2 and 95% of O2 into the bath. 10 Minutes after the blowing, 10^-6M of histamine was added to the bath to examine the sensitivity of the tissue and a reaction curve (control) with respect to the dosage of histamine was obtained. After the dosage of histamine-reaction curve (control) become constant 10^-6 g/ml of a compound to be tested was added to the bath and further histamine was added 5 minutes later to obtain dosage-reaction curve. Retraction of the isotonic was recorded on a pen-recorder through an isotonic transducer (TD-112S manufactured by Nihon Koden). Antihistaminc activity of the test compound was determined as pA2 value by "Van Rossam" method (J. M. Van Rossam: Arch. Inst. Pharmacodyn. Ther., 143, 299 (1963)) in terms of that the maximum retraction of ileum caused by histamine shown in the control curve is 100%.

[3] = 10^-6 g/ml test compound, histamine, Tyrode's solution, 36° C., Van Rossam method, read-out: pA2 (converted)

retraction of ileum caused by histamine, sequence (P31389 whole entry): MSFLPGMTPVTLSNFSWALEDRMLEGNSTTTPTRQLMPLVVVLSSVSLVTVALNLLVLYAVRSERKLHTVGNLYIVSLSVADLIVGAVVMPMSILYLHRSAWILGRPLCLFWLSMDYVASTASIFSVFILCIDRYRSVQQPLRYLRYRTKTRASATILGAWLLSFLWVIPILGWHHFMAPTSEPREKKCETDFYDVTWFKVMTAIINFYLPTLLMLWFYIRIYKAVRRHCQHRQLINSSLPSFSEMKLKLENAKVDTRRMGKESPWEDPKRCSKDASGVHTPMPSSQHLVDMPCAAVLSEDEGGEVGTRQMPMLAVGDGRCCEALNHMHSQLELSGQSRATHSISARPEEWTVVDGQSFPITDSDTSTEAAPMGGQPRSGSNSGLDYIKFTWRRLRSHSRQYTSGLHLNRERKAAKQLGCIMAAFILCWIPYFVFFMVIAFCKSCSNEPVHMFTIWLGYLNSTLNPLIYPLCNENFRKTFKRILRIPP

| SMILES | Acute toxicity (LD50) (male rats) [mg/kg] | Kb [2, 3] [nM] | other results |
| --- | --- | --- | --- |
| O=C1CCc2cc(C(=O)CCCN3CCN(c4ccccc4Cl)CC3)ccc2N1 [Compound 3, 6-{1-Oxo-4-[4-(2-chlorophenyl)-1-piperazinyl]butyl}-3,4-dihydrocarbostyril.monohydrochloride.monohydrate] | 500 |  | Score obtained (Mean value), degree of palpebral ptosis (palpebral ptosis): 2.0; ED50 [1]: 1.05 mg/kg; ED50 (epinephrine): 6.12 mg/kg; Time (minutes) between introduction of anesthesia to waking (Halothane anesthesia): 8.0 min |
| CN1C(=O)CCc2cc(C(=O)CCN3CCN(c4ccccc4)CC3)ccc21 [Compound 20, 1-Methyl-6-[1-oxo-3-(4-phenyl-1-piperazinyl)propyl]-3,4-dihydrocarbostyril.monooxalate] | 500 | 26.3 |  |
| Cc1cccc(N2CCN(CC=Cc3ccc4c(c3)CCC(=O)N4Cc3ccccc3)CC2)c1 [Compound 21, 1-Benzyl-6-{3-[4-(3-methylphenyl)-1-piperazinyl]-1-propenyl}-3,4-dihydrocarbostyril monooxalate] |  | 49 |  |
| O=C1CCc2c(CCCN3CCN(c4ccccc4)CC3)cccc2N1 [Compound 22, 5-[3-(4-Phenyl-1-piperazinyl)propyl]-3,4-dihydrocarbostyril] | 500 | 97.7 |  |
| Cc1ccc(C2=CCN(CC=Cc3ccc4c(c3)CCC(=O)N4)CC2)cc1 [Compound 23, 6-{3-[4-(4-Methylphenyl)-1,2,5,6-tetrahydropyridyl]-1-propenyl}-3,4-dihydrocarbostyril] | 500 |  | Kb [2]: 15.5 nM |
| O=C1CCc2cc(C(=O)CCN3CCC(Cc4ccccc4)CC3)ccc2N1 [Compound 24] | 500 | 58.9 |  |
